Earlier results in patent US5945105A, “Peptides of the antigen Sm-D and their use, in particular for the diagnostics of systemic lupus erythematosus (SLE)” (Imtec Immundiagnostika GmbH, priority 1995, dated 1999).

System: anti-SmD antibody-positive sera / SLE sera
Settings: cited from earlier work; for anti-SmD antibody-positive sera that reacted with the peptide: 18 anti-SmD antibody-positive sera (immuno blotting); for positive reactions in the ELISA, SLE sera: 165 SLE sera

Row | Substance | anti-SmD antibody-positive sera that reacted with the peptide | positive reactions in the ELISA, SLE sera
1 | 1-20: first region of the SmD protein, amino acids 1 through 20 (Barakat et al.) (MKLVRFLMKLSHETVTIELK; UniProt P62314 1-20, looked up, fragment) [Peptide 1-20] | 67% | 59%
2 | 44-67: second region of the SmD protein, amino acids 44 through 67 (Barakat et al.) (KMTLKNREPVQLETLSIRGNNIRY; UniProt P62314 44-67, looked up, fragment) [Peptide 44-67] | 89% | 37%
3 | 97-119: third region of the SmD protein, amino acids 97 through 119 (Barakat et al.) (GRGRGRGRGRGRGRGRGRGGPRR; UniProt P62314 97-119, looked up, fragment) [Peptide 97-119] | 33% | 1%
